Source: article PMC12441857, “Cannabinoid CB1 Receptor Activation Mitigates N‑Methyl‑D‑aspartate Receptor-Mediated Neurotoxicity” (ACS Pharmacology & Translational Science, 2025)

Biological target: T1, cannabinoid CB1 receptor (CB1R) (Homo sapiens, UniProt P21554)
T1 construct: gene CNR1; SNAP-tagged CB1R in HEK-293T cells
Assay: HTRF (Tag-lite) competition binding against fluorescent CELT-335
Type: cell-based

T1 sequence (P21554 whole entry): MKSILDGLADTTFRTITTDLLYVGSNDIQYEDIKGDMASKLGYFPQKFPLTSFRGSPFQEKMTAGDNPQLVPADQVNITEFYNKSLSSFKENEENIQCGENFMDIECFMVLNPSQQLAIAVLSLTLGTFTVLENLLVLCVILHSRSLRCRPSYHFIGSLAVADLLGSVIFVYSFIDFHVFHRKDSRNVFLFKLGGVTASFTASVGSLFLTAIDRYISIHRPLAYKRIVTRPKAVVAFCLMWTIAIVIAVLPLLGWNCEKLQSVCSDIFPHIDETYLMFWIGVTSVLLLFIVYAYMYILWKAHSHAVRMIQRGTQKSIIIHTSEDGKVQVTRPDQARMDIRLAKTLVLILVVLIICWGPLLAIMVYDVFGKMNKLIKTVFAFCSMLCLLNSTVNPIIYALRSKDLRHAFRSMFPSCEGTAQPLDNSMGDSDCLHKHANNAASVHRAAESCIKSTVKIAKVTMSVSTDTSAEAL

CCCCC/C=C\C/C=C\C/C=C\C/C=C\CCCC(=O)NCCCl [ACEA]
Ki: 4.8 nM
